According to patent publication US20260035370A1, “CRYSTAL FORM OF 8-CHLORO-3-PENTYL-3,7-DIHYDRO-1H-PURIN-2,6-DIONE COMPOUND AND PREPARATION METHOD THEREFOR” (Shanton Pharma Pte. Ltd., priority 2023, published 2026):

Key:
[1] = Hygroscopicity test according to Chinese Pharmacopoeia; format: physicochemical; conditions: for Weight gain due to hygroscopicity: 25±1° C., 80%+2% relative humidity; for Hygroscopicity, summary in words: summary of hygroscopicity test
Procedure: Test Example 3: Hygroscopicity Test (According to Chinese Pharmacopoeia, Guidelines for Drug
Hygroscopicity Testing, at 25±1° C., and 80%+2% Relative Humidity)
An appropriate amount of the sample from the examples was taken for the hygroscopicity test.

[2] = High humidity test (influencing factor stability test); format: physicochemical; conditions: for Change of purities/related substance contents: under high humidity and light exposure (summary of Table 1)
Procedure: (§1) Test samples: crystal form I and crystal form II of the compound of formula (1) were prepared according to the above examples.
(§2) Test conditions for investigating the influencing factors:
(§3) High humidity test: Crystal form I and crystal form II of the compound of formula (1) were laid on a dry and clean watch glass, and kept at 40° C.±2° C., and 75% RH±5% for 10 days. Samples were taken respectively on Day 5 and Day 10. The purity and the related substance content of the compound of formula (1) were determined and compared with those of the sample taken on Day 0.

[3] = Kinetic stability in the solid state (long-term storage); format: physicochemical; conditions: stored at 10° C.-30° C. in double-sealed aluminum packaging and plastic self-sealing bags for more than 6 years
Procedure: (§4) The dehydration risk of the monohydrate crystal form was also evaluated by using VT-XRPD (variable temperature X-ray powder diffraction) in the present invention. […] The stability of crystal forms I and IV in the solid-state was also studied in the present invention.

[4] = Thermodynamic stability of crystal forms; format: physicochemical
Procedure: as §4

[5] = In vivo PK after oral administration in SD rats; conditions: for Half-life (t1/2), comparison in words: SD rats, PO, summary of Table 2; for t1/2: male SD rats, PO 2 mg/kg, plasma, mean ± SD, n = 3
Procedure: Test samples: the compound of represented by formula (1), and crystal forms I and II of the compound of formula (1) were prepared according to Examples 1-3;
The tris (i.e. tris(hydroxymethyl)aminomethane) salt crystal form of the compound 8-chloro-3-pentyl-3,7-dihydro-1H-purine-2,6-dione was prepared with reference to WO2010/068581A1.
Oral administration (PO) of four samples:
The concentrations of the test substances were output using Analyst 1.6.2 from AB Sciex. Parameters such as mean, standard deviation, and variation coefficient were calculated using Microsoft Excel (those directly output by Analyst 1.6.2 were not recalculated). PK parameters were calculated using Pharsight Phoenix 6.2 software (NCA model).

[6] = Dehydration risk of monohydrate crystal form by VT-XRPD; format: physicochemical
Procedure: as §4

[7] = Solid-state stability under accelerated conditions, open container; format: physicochemical; conditions: one month
Procedure: as §4

[8] = Stability of crystal form I in the formulation; format: physicochemical
Procedure: as §4

[9] = Photostability test (influencing factor stability test); format: physicochemical; conditions: illuminance 5000 Lx ± 500 Lx
Procedure: as §1, §2
as §3, with “Photostablity” for “High humidity”, “an illuminance of 5000 Lx±500 Lx in a light box” for “40° C.±2° C., and 75% RH±5%”

[10] = Transformation of crystal form on standing under ambient conditions; format: physicochemical; conditions: 25-30° C., 70-85% RH, about 10 hours
uric acid = conditions: cited from earlier work
[11] = cited from earlier work
[12] = compared with the free acid; cited from earlier work
[13] = 40° C. ± 2° C./75% ± 5% RH, Day 5
[14] = 40° C. ± 2° C./75% ± 5% RH, Day 10
[15] = Day 0, sample before exposure (baseline for both tests)

## CCCCCn1c(=O)[nH]c(=O)c2[nH]c(Cl)nc21 [Crystal form I, 8-chloro-3-pentyl-3,7-dihydro-1H-purine-2,6-dione]
[1]
  Weight gain due to hygroscopicity: <0.2%
  Hygroscopicity, summary in words: extremely low hygroscopicity
[2]; [13]
  Purity: 99.5%
  Related substance: 0.46%
[2]; [14]
  Purity: 99.6%
  Related substance: 0.42%
[2]; [15]
  Purity: 99.6%
  Related substance: 0.45%
[2]
  Change of purities/related substance contents: changed very little
[3]
  Crystal form after long-term storage: remained unchanged
[4]
  Thermodynamic stability for pharmaceutical applications: advantageous
[5]
  Half-life (t1/2), comparison in words: longer half-lifes
[5]; 2 mg/kg
  t1/2: 5.28 ± 1.10 h
[6]
  Dehydration risk: very low
[7]; 25° C./92.5% RH
  Crystal form transformation after storage: did not transform
[7]; 40° C./75% RH
  Crystal form transformation after storage: did not transform
[8]; formulation stored at 25° C./60% RH for 9 months
  Content of crystal form III in the formulation: below LOD
[8]; formulation stored at 40° C./75% RH for 6 months
  Content of crystal form III in the formulation: below LOD
[9]; Day 5
  Purity: 99.6%
  Related substance: 0.44%
[9]; Day 10
  Purity: 99.5%
  Related substance: 0.46%

## CCCCCn1c(=O)[nH]c(=O)c2[nH]c(Cl)nc21 [Crystal form II, 8-chloro-3-pentyl-3,7-dihydro-1H-purine-2,6-dione]
[1]
  Weight gain due to hygroscopicity: <0.2%
  Hygroscopicity, summary in words: extremely low hygroscopicity
[2]; [13]
  Purity: 99.7%
  Related substance: 0.31%
[2]; [14]
  Purity: 99.7%
  Related substance: 0.32%
[2]; [15]
  Purity: 99.7%
  Related substance: 0.32%
[2]
  Change of purities/related substance contents: changed very little
[4]
  Thermodynamic stability for pharmaceutical applications: advantageous
[5]
  Half-life (t1/2), comparison in words: longer half-lifes
[5]; 2 mg/kg
  t1/2: 4.26 ± 0.61 h
[9]; Day 5
  Purity: 99.7%
  Related substance: 0.31%
[9]; Day 10
  Purity: 99.7%
  Related substance: 0.32%

## CCCCCn1c(=O)[nH]c(=O)c2[nH]c(Cl)nc21 [Crystal form III, 8-chloro-3-pentyl-3,7-dihydro-1H-purine-2,6-dione]
[4]
  Thermodynamic stability for pharmaceutical applications: suboptimal

## CCCCCn1c(=O)[nH]c(=O)c2[nH]c(Cl)nc21 [Crystal form IV, 8-chloro-3-pentyl-3,7-dihydro-1H-purine-2,6-dione]
[7]; 25° C./92.5% RH
  Crystal form transformation after storage: transformed into crystal form I
[7]; 40° C./75% RH
  Crystal form transformation after storage: transformed into crystal form I

## CCCCCn1c(=O)[nH]c(=O)c2[nH]c(Cl)nc21 [Crystal form V, 8-chloro-3-pentyl-3,7-dihydro-1H-purine-2,6-dione]
[10]
  Crystal form transformation under ambient conditions: transform into crystal form IV

## CCCCCn1c(=O)[nH]c(=O)c2[nH]c(Cl)nc21 [Formula (1), 8-chloro-3-pentyl-3,7-dihydro-1H-purine-2,6-dione]
Uric acid
  Uric acid-lowering effect: good uric acid-lowering effect

## CCCCCn1c(=O)[nH]c(=O)c2[nH]c(Cl)nc21 [Solid product of Example 1, 8-chloro-3-pentyl-3,7-dihydro-1H-purine-2,6-dione monohydrate, reference compound]
[5]; monohydrate, 2 mg/kg
  t1/2: 2.32 ± 0.09 h

## CCCCCn1c(=O)[nH]c(=O)c2[nH]c(Cl)nc21.NC(CO)(CO)CO [tris salt crystal form, 8-chloro-3-pentyl-3,7-dihydro-1H-purine-2,6-dione tris(hydroxymethyl)aminomethane salt]
[5]
  t1/2: 2.38 ± 0.17 h
[11]
  Solubility compared with the free acid: higher solubility
[12]
  Cmax: increased Cmax
  Tmax: decreased Tmax
